Source: patent US8415327B2, “Methods of and compositions for reducing cell death” (priority 2009, dated 2013)
“Also recorded” adds a separate entry of the source.

Tests used:
[1] = tested on: retinal endothelial cells; assay: Radiation-induced death of retinal endothelial cells, calcein-AM/propidium iodide viability assay; assay type: cell-based, murine; details: for rescue: 1 μM at the time of irradiation, 72 hours; for radio-protection: administered before or at the time of irradiation
Procedure: Cell Culture: Murine endothelial cells were isolated from Immortomice, which express a temperature-sensitive Simian virus 40 large T antigen, using sheep anti-rat Dynabeads coated with the rat anti-mouse PECAM-1 monoclonal antibody MEC13.3. […] Irradiation and Viability Assays: The cells were plated onto 1% gelatin coated 96-well plates at a density of 2,000 cells per well. For irradiation, control and treatment groups were removed from the incubator. Treatment groups received single doses of radiation between 1 and 30 Gray using an irradiator containing ^137Cesium (JL Shepherd & Associates) using a rotating platform to ensure uniform delivery. Control groups were left at room temperature during irradiation of the treatment groups. PB1 or PB2 was administered 18 hours before, immediately before, or 18 hours after irradiation. Media was aspirated 48 or 72 hours after irradiation using a 30 gauge needle and the cells were incubated in staining containing calcein-AM and propidium iodide in PBS for 30 minutes at room temperature in the dark. Digital photomicrographs of the wells were taken at a total magnification of 200× on a Zeiss Axiovert inverted microscope under epifluorescence. Calcein-positive (viable) and propidium iodide-positive (dead) cells were counted using NIH ImageJ software. Statistical significance was determined using the Student's t-tests.

[2] = Sulfhydryl reducing activity (DTNB); assay type: biochemical
Procedure: Sulfhydryl reducing activity: Sulfhydryl reducing activity was measured with 5-5′-dithio-bis(2-nitrobenzoic acid) (DTNB), which undergoes a colorimetric change when its disulfide linkage is reduced. Reaction of various concentrations of dithiothreitol, tris(carboxyethyl)phosphine, PB1, or PB2 with 30 mM DTNB in methanol was carried out in buffer at pH 5, 7, and 9. The sulfhydryl reduction potentials of PB1 and PB2 were assessed both before and after borane deprotection with DABCO.

[3] = Superoxide scavenging (hydroethidine fluorescence, xanthine/xanthine oxidase); assay type: biochemical
Procedure: Superoxide scavenging: The ability of PB1 and PB2 to scavenge superoxide was quantified essentially as described ([…] et al., Invest. Opthalmol. Vis. Sci. 47:3878 (2006)). Essentially, fluorescence of hydroethidine was measured after exposure to superoxide generated by xanthine/xanthine oxidase, in the presence or absence of PB1, PB2, or polyethylene glycol-conjugated superoxide dismutase used as positive control.

[4] = tested on: retinal endothelial cells; assay: Protection of retinal endothelial cells from H2O2 oxidative damage; assay type: cell-based, murine; details: for most effective concentration against oxidative insults: tested at 1-1000 μM
Procedure: Cell Culture: Murine endothelial cells were cultured as described in Experiment 3. Endothelial cells were treated directly with high levels of H2O2 in the absence or presence of PB1 and PB2 at a concentrations of 1-1000 μM.

RGC-5 cells [5] = assay: Rescue of RGC-5 cells from METC-active drugs (menadione, rotenone, antimycin A), calcein/propidium iodide viability assay; details: for protection/rescue from death induced by menadione, rotenone and antimycin A: RGC-5 cells, 24 hours co-incubation; for viability (live cells compared to untreated controls): 24 hours; for rescue of RGC-5 cells at higher concentrations: most likely due to toxicity
Procedure: Cell Culture: RGC-5 cells were cultured in Dulbecco's modified Eagle's medium (DMEM) (Mediatech, Inc., Manassas, Va.). containing 1 g/L glucose, supplemented with 10% fetal bovine serum, 100 U/mL penicillin, and 100 μg/mL streptomycin (Mediatech, Inc.). Cells were passaged every 48 to 72 hours when cells were approximately 60 to 75% confluent, replated at a 1:20 dilution in a 75 cm^2 flask in 20 ml of cell culture media and incubated at 37° C. in humidified 5% CO2. Experiments were performed in duplicate or triplicate.
Cell Treatment and Assessment of Viability: Cells were plated in 96-well plates at a density of 60 cells/mm^2 in 50 μL of media. Approximately 24 hours after plating, 50 μL of media containing either menadione, rotenone, or antimycin A, either with or without PB1 and PB2, was added to the cells to generate the final concentrations of 10 nM, 1 μM, or 100 μM. Control wells received media containing vehicle alone. Following 24 hours of treatment, media was aspirated from wells using a 25-gauge needle and cells stained with calcein-AM (10 μg/mL) and propidium iodide (1 μg/mL) (both Invitrogen, Carlsbad, Calif.) in PBS for 30 minutes. The staining solution was aspirated using a 25-gauge needle and replaced with PBS. Three randomly chosen fields per well were photographed on an Axiovert 135 microscope under epifluorescence with a Nikon D70s digital SLR camera (Nikon, Melville, N.Y.) at a resolution of 3008×2000 pixels and an exposure time of 1.6 seconds. Live (calcein-positive) and dead (propidium iodide-positive) cells were assessed using Image) software. Pictures were batch analyzed using a macro containing the following actions: subtract background, threshold, erode, erode, watershed, and analyze particles between the sizes of 1000 pixels and infinity. […] Each experiment was analyzed with respect to its own set of controls to account for variation in passage number of the RGC-5 cells and small differences between batches of cryopreserved RGC-5 cells.
Statistics: Viability was assessed as number of live cells/mm^2, and compared to the untreated controls of each experiment. Means were compared using Student's unpaired t-test.
RGC-5 cells plated in 96-well plates were treated for 24 hours with the redox cycling agent menadione, the complex I inhibitor rotenone, or the complex III inhibitor antimycin A, at final concentrations ranging from 100 nM to 31.6 μM (menadione) or 1 μM to 316 μM (rotenone or antimycin A). […] RGC-5 cells were co-incubated with these mitochondrial electron transporter chain (METC)-drugs and the borane-phosphines PB1 or PB2 for 24 hours, followed by assessment of cell viability by calcein/propidium iodide assay. TCEP (100 μM) served as a positive control.

RGC-5 cells [6] = assay: Menadione-induced cell death in RGC-5 cells (calcein-AM viable cell count); assay type: cell-based; details: for neuroprotection against menadione-induced cell death / effectiveness as neuroprotectant compared with PB3: RGC-5 cells; for % of the cells protected from menadione-induced cell death: 17.8 μM menadione, 24 hours; for effectiveness as neuroprotectant compared with PB3: menadione
Procedure: Cell Culture: Cells of RGC-5 (ATCC Deposit Accession No. PTA-6600), a neuronal cell line, were suspended in growth medium and plated in 96-well plates at a density of 2,000 cells per well. After 24 hours in culture, cells were treated with 17.8 μM menadione (Sigma-Aldrich, St. Louis, Mo.). Menadione creates oxidative stress resulting in cell death. PB3, PB4, or PB6 was added to the wells directly before menadione treatment. After 24 hours of menadione treatment, the cells were stained with calcein-AM and photographed.

[BH3-][P+](CCC(=O)OC)(CCC(=O)OC)c1ccccc1 [PB1, bis(3-propionic acid methyl ester)phenylphosphine borane complex]
protection against radiation exposures ([1]; 100 nM, 18 hours after irradiation, all radiation exposures tested): significant protection
viable cell counts, % of non-irradiated control ([1]; 1 μM administered at the time of irradiation, 3 Gy, 72 hours after irradiation, 29±6% without compound): 54±6%
rescue ([1]; 3 Gy): 35%
radiomitigation: change in viable cell counts ([1]; administered 18 hours after exposure to ionizing radiation up to 30 Gy): significant increases in viable cell counts
radio-protection [1]: effective radio-protectants
protection against radiation exposure ([1]; all PB1 treatment levels, 18 hours after irradiation, 30 Gy, p<0.05): significant protection
disulfide reduction as mechanism of protection [2]: involves disulfide reduction
superoxide scavenging as mechanism of protection [3]: not superoxide scavenging
viable cell counts, % of control ([4]; H2O2, compound 1 μM, 24 hours, 4.2±1.1% without compound): 10.8±2.3%
most effective concentration against oxidative insults ([4]; H2O2): 1 µM
protection/rescue from death induced by menadione, rotenone and antimycin A (RGC-5 cells [5]): significant rescue; also recorded: significant protection
viability (live cells compared to untreated controls) (RGC-5 cells [5]; antimycin A, compound 100 μM, vs. 34±2% without compound): 74±4%
rescue of RGC-5 cells at higher concentrations (RGC-5 cells [5]): little or no rescue
viability (live cells compared to untreated controls) (RGC-5 cells [5]; menadione, compound 100 μM, vs. 34±4% without compound): 83±5%
viability (live cells compared to untreated controls) (RGC-5 cells [5]; rotenone, PB1 concentration not restated (100 μM in preceding sentence), vs. 25±3% without compound): 36±3%

[BH3-][P+](CCC(=O)OC)(c1ccccc1)c1ccccc1 [PB2, (3-propionic acid methyl ester)diphenylphosphine borane complex]
rescue ([1]; 3 Gy): 46%
radio-protection [1]: effective radio-protectants
disulfide reduction as mechanism of protection [2]: involves disulfide reduction
superoxide scavenging as mechanism of protection [3]: not superoxide scavenging
viable cell counts, % of control ([4]; 1 µM): 9.0±1.6%
most effective concentration against oxidative insults ([4]; H2O2): 1 µM
toxicity to RGC-5 cells (RGC-5 cells [5]): toxic
protection/rescue from death induced by menadione, rotenone and antimycin A (RGC-5 cells [5]): significant rescue; also recorded: significant protection
rescue of RGC-5 cells at higher concentrations (RGC-5 cells [5]): little or no rescue

B.CCCCCCOC(=O)CCP(CCC(=O)OCCCCCC)c1ccccc1 [PB3, bis(3-propionic acid hexyl ester)phenylphosphine borane complex]
neuroprotection against menadione-induced cell death (RGC-5 cells [6]): neuroprotective
% of the cells protected from menadione-induced cell death (RGC-5 cells [6]; compound 1 μM): 46.4±16.8%
% of the cells protected from menadione-induced cell death (RGC-5 cells [6]; compound 10 μM): 38.3±12.2%
% of the cells protected from menadione-induced cell death (RGC-5 cells [6]; compound 100 μM): 30.9±4.3%

[BH3-][P+](CCC(=O)OCCCCCC)(c1ccccc1)c1ccccc1 [PB4, (3-propionic acid hexyl ester)diphenylphosphine borane complex]
neuroprotection against menadione-induced cell death (RGC-5 cells [6]): neuroprotective
effectiveness as neuroprotectant compared with PB3 (RGC-5 cells [6]): less effective neuroprotectants than PB3
% of the cells protected from menadione-induced cell death (RGC-5 cells [6]; compound 1 μM): 19.0±5.5%

[BH3-][P+](CC(=O)NCC)(c1ccccc1)c1ccccc1 [PB6, (2-Ethyl acetamide)diphenylphosphine borane complex]
neuroprotection against menadione-induced cell death (RGC-5 cells [6]): neuroprotective
effectiveness as neuroprotectant compared with PB3 (RGC-5 cells [6]): less effective neuroprotectants than PB3
% of the cells protected from menadione-induced cell death (RGC-5 cells [6]; compound 10 pM): 25.6±8.4%
